From ChEMBL document CHEMBL1201862, “PubChem BioAssay data set” (2004)
Active and inactive are the calls of the source.

Experiments:
[1] = viability loss of HPDE-C7K cells – cell-based, fluorescence, HTS, primary screen (AID 431); assay type: functional; details: Homo sapiens
[2] = HPDE-C7 pancreatic duct cell viability loss – fluorescence, HTS (AID 430); assay type: functional, cell-based; details: Homo sapiens
Cytochrome P450 2C19 = Cytochrome P450 2C19 (Homo sapiens, UniProt P33261); assay: Cytochrome panel assay with activity outcomes. Panel member name: p450-cyp2c19 Compounds with AC50 equal or less than 10 uM are considered active; assay type: functional; details: read-out: AC50
Cytochrome P450 3A4 = Cytochrome P450 3A4 (Homo sapiens, UniProt P08684);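 also: CYP3A4 tested as one member of a cytochrome P450 panel screen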
Cytochrome P450 2C9 = Cytochrome P450 2C9 (Homo sapiens, UniProt P11712)
[3] = biological target: T1, Mannose-6-phosphate isomerase (Homo sapiens, UniProt P34949); assay: MPI inhibition at elevated mannose 6-phosphate – biochemical, fluorescence intensity, high mannose 6-phosphate, primary screen (AID 1220)
T1 sequence (P34949 whole entry): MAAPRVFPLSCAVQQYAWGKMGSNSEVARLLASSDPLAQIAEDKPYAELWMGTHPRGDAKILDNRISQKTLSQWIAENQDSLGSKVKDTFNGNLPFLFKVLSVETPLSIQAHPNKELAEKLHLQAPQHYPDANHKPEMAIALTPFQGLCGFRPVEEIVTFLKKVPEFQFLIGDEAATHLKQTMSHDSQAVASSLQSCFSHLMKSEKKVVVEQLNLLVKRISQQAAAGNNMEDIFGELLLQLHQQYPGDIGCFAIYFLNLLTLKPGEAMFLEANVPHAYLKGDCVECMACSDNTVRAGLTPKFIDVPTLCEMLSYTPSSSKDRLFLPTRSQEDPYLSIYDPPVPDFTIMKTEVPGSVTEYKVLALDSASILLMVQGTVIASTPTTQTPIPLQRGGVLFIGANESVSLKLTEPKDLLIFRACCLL

[4] = biological target: Luciferin 4-monooxygenase (Photinus pyralis, UniProt P08659); assay: inhibition of purified Photinus pyralis luciferase – biochemical, luminescence, dose response (AID 1891)
[5] = A Cell Based Secondary Assay To Explore Cytotoxicity of Compounds that Sensitize Mycobacterium Tuberculosis to Beta-Lactam Antibiotics.; assay type: functional
[6] = biological target: Glyceraldehyde-3-phosphate dehydrogenase (Homo sapiens, UniProt P04406)
Bcl-2-related protein A1 [7] = biological target: T2, Bcl-2-related protein A1 (Mus musculus, UniProt Q07440); assay: small-molecule antagonists of Bfl-1/BH3 interaction – biochemical, TR-FRET, mouse Bfl-1, confirmation (AID 621);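 also: TR-FRET binding of GST-Bfl-1 to FITC-labelled Bid peptide via terbium antibody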
T2 sequence (Q07440 whole entry): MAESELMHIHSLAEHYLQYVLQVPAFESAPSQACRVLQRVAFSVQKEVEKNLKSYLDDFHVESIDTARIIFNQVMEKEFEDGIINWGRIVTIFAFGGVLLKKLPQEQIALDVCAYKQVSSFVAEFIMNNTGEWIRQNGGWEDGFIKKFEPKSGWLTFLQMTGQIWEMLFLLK

Bcl-2-related protein A1 [8] = biological target: T2, Bcl-2-related protein A1; assay: Bfl-1 binding inhibitors, SAR follow-up, biochemical, fluorescence polarization (AID 1070)
[9] = off-target signal loss in HeLa-CEM21 co-culture – HeLa F-luc CTL cells, cherry-picked, counter-screen for HIV-1 Env fusion inhibitor project, dose response (AID 652040); assay type: functional, cell-based;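 also: potency for signal decrease marking cytotoxic or nonspecific inhibition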
[10] = viability loss in CEM21 cells – cell-based, CellTiter-Glo luminescence, cherry-picked, cytotoxicity control for viral fusion inhibitor project, dose response (AID 652042); assay type: functional;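 also: potency for signal decrease meaning cytotoxicity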
[11] = HIV-1 AD8 envelope cell-cell fusion blockers – cherry-pick, dose response (AID 652062); assay type: functional, cell-based;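 also: luciferase signal from cell-cell fusion driven by HIV-1 clade B AD8 Env; potency is for inhibitors of fusion seen as a drop in luminescence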
[12] = viability of HCT116 lacking mutant beta-catenin – cell-based, human colon tumor, dose response (AID 1045); assay type: functional;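 also: HCT116 colon tumor cells with beta catenin knocked out; cells exposed to compound for 60 hours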
[13] = blockers of HIV-1 ZM109 envelope-driven cell-cell fusion – HeLa effector, CEM target cells, luciferase, cherry-pick, dose response (AID 652058); assay type: functional, cell-based;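 also: luciferase signal from HIV-1 Env mediated cell-cell fusion of effector and target cells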
[14] = viability of PTEN-deleted HCT116 cells – cell-based, HCT116 PTEN knockout, dose response (AID 1047); assay type: functional;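 also: HCT116 colon tumor cells with PTEN knocked out; cells exposed to compound for 60 hours before readout; potency for loss of cell viability measured by luminescence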
cells = assay type: functional
[15] = biological target: Ras and Rab interactor 1/Tyrosine-protein kinase ABL1 (Homo sapiens, UniProt P00519+Q13671); assay type: functional;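 also: biochemical TR-FRET dose-response test measuring inhibition of binding between Rin1 and Abl proteins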
[16] = viability loss in Vero cells – cytotoxicity control for Vif-APOBEC3G degradation inhibitor project, dose response (AID 1117358); assay type: functional; details: Vero
[17] = activation of miR-122 Renilla sensor silencing – cell-based, Huh7 psiCHECK-miR122, Renilla luciferase, cherry-picked, dose response (AID 651956); assay type: functional;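 also: huh7 hepatoma cells stably carrying a psiCHECK-2 miR-122 sensor plasmid; renilla luciferase signal reporting endogenous miR-122 activity after 48 h compound exposure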
[18] = P. falciparum Dd2 growth inhibitors, dose response, SYBR Green, cherry-picked samples (AID 1159567); assay type: functional, cell-based
[19] = toxicity to human hepatoma HepG2 cells – cell-based, cherry-picked samples, cytotoxicity control, dose response (AID 1159577); assay type: functional
[20] = blockade of melanocortin 4 receptor signaling – cell-based, plate reader, cherry pick, counter-screen for LGR2 antagonist project, dose response (AID 743444); assay type: functional;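 also: transfected HEK 293 cells stimulated with alpha-MSH peptide; potency of inhibitors of the alpha-MSH evoked signal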
[21] = blockers of bursicon-stimulated LGR2 cAMP reporter – cell-based, HEK293, CRE-luciferase reporter, cherry pick, set 2, dose response (AID 743343); assay type: functional;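 also: transfected cells were stimulated with diluted bursicon conditioned medium after compound addition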
[22] = blockers of HIV-1 envelope-mediated cell-cell fusion – cherry-pick, dose response (AID 652057); assay type: functional, cell-based

Sequence of Cytochrome P450 3A4 (P08684 whole entry): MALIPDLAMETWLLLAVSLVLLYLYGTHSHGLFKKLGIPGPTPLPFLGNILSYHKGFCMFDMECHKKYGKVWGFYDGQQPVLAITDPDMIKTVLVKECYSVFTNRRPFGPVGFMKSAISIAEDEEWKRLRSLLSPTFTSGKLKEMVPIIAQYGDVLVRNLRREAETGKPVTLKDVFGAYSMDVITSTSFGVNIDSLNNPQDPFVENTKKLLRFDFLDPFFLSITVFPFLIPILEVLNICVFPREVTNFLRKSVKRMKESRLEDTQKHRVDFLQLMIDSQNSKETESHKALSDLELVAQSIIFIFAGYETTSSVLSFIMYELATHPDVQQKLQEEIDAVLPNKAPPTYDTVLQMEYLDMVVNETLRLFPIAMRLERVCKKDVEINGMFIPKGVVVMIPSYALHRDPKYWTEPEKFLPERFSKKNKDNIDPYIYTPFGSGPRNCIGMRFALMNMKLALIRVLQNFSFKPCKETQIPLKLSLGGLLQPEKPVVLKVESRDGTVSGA
Sequence of Ras and Rab interactor 1/Tyrosine-protein kinase ABL1 (P00519 whole entry): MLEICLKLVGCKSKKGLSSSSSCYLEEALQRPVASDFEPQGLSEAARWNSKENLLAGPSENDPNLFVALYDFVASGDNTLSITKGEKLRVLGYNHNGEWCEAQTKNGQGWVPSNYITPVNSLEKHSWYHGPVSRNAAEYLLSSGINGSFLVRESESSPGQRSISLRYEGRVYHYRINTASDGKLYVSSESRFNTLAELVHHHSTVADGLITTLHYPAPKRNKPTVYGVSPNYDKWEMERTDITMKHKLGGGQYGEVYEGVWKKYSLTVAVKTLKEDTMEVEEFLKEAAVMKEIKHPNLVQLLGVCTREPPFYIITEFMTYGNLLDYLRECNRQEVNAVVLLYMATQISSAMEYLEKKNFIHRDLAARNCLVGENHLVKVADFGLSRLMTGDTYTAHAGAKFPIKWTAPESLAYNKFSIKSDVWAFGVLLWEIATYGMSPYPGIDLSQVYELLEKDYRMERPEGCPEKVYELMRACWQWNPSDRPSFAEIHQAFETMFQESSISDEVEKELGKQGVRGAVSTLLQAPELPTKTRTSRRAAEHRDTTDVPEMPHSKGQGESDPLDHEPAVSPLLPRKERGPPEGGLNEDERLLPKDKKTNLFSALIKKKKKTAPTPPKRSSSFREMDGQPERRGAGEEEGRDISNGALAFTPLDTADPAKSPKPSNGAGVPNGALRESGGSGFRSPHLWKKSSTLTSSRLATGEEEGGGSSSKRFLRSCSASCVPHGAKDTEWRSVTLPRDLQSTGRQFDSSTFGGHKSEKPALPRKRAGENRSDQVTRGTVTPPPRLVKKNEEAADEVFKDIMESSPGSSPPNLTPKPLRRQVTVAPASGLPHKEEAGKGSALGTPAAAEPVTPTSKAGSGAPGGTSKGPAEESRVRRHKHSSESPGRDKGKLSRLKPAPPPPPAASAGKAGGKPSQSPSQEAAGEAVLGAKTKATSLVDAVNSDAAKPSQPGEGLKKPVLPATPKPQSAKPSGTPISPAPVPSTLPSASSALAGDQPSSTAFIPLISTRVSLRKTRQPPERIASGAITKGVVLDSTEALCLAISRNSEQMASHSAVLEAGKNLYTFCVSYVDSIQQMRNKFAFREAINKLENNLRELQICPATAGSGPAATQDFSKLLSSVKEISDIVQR
Sequence of Ras and Rab interactor 1/Tyrosine-protein kinase ABL1 (Q13671 whole entry): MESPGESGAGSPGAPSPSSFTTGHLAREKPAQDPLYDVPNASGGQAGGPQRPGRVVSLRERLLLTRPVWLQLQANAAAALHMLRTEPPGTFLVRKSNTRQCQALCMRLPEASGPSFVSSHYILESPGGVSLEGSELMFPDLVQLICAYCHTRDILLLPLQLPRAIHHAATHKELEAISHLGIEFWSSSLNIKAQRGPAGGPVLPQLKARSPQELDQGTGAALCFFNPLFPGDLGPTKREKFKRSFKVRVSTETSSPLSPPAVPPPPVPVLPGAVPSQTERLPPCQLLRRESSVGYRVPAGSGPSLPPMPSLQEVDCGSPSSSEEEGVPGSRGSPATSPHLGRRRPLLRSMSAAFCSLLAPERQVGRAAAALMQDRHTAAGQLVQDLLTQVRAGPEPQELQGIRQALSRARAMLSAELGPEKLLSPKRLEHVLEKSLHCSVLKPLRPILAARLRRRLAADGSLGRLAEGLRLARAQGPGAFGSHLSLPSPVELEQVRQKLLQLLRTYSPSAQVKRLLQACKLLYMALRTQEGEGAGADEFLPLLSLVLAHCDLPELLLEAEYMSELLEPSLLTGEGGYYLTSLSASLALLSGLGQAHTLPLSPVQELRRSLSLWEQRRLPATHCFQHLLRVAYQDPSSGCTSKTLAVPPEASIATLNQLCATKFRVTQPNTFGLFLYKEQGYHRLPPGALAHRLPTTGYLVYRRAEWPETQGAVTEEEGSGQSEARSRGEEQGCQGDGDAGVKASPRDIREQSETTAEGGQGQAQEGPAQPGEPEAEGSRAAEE
Sequence of Glyceraldehyde-3-phosphate dehydrogenase (P04406 whole entry): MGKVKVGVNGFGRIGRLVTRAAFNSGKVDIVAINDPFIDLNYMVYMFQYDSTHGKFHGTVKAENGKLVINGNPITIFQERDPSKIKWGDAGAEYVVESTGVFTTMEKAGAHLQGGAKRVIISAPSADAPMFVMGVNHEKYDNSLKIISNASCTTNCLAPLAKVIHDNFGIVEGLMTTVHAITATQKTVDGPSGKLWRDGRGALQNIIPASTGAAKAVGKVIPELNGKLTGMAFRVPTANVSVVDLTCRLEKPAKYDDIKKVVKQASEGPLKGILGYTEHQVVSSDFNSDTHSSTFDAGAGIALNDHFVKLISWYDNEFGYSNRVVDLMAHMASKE
Sequence of Luciferin 4-monooxygenase (P08659 whole entry): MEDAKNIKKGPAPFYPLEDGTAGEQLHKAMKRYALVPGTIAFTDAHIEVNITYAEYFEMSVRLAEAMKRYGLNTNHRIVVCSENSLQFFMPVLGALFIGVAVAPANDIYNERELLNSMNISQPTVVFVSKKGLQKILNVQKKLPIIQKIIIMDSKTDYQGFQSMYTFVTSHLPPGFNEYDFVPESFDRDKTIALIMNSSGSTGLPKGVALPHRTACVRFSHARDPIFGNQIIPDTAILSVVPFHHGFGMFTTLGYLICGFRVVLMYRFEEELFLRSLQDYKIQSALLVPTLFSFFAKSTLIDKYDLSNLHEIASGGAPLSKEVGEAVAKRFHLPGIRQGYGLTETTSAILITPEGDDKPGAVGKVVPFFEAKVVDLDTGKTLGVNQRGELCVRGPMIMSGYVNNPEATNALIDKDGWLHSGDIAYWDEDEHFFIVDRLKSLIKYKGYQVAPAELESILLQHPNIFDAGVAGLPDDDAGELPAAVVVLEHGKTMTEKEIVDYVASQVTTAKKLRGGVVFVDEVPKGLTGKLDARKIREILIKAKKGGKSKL
Sequence of Cytochrome P450 2C9 (P11712 whole entry): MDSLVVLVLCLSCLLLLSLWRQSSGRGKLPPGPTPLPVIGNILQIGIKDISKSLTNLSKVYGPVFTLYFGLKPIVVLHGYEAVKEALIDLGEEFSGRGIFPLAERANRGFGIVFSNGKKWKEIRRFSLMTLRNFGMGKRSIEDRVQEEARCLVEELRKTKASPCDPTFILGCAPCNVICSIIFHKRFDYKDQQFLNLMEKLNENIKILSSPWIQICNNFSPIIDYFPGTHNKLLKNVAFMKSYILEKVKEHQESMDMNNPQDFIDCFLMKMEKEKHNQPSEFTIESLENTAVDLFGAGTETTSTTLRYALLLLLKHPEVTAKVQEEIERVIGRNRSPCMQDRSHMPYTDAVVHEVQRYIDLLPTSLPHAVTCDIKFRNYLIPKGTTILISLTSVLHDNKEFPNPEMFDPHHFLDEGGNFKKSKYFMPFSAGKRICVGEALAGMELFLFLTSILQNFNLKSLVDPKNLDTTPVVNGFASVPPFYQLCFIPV
Sequence of Cytochrome P450 2C19 (P33261 whole entry): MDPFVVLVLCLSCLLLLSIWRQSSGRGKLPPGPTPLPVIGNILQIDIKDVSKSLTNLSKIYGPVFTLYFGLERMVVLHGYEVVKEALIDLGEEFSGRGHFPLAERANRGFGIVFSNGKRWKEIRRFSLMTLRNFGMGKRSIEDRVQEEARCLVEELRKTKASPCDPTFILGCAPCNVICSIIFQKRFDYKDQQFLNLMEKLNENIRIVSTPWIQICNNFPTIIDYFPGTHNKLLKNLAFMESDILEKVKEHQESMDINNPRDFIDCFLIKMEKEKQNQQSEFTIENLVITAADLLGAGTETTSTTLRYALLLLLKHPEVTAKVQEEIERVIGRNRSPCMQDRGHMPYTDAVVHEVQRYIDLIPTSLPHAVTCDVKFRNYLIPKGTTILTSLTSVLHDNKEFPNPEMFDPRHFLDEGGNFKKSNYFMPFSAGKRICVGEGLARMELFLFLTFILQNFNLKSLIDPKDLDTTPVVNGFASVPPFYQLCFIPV

N#CC1=C(N)NC(SCc2ccc(Cl)cc2)=C(C#N)C12CCCCC2
EC50 [1]: 6.43 µM (active) | EC50 [2]: 8.84 µM (active)

CCC(=O)N1CCN(c2ccc(NC(=O)c3cccs3)cc2)CC1
AC50 (Cytochrome P450 2C19): 0.501 µM (inconclusive) | AC50 (Cytochrome P450 3A4): inconclusive | AC50 (Cytochrome P450 2C9): inconclusive

COc1cc(CNc2ccc3[nH]c(=O)[nH]c3c2)ccc1OCC(=O)NC(C)(C)C
IC50 [3]: > 50 µM (not active) | EC50 [4]: > 112 µM (not active)

O=C(OC1CCN(c2ncc(C(F)(F)F)cc2Cl)CC1)c1ccccc1
AC50 (Cytochrome P450 3A4): inconclusive

CCOC(=O)c1ccccc1NC(=O)C1COc2ccccc2O1 (stereo unspecified)
CC50 [5]: > 40 µM (active)

Cc1ccc(NC2=C(Cl)C(=O)N(c3ccc(C)cc3)C2=O)cc1
IC50 [6]: > 100 µM (not active) | IC50 (Bcl-2-related protein A1 [7]): 2.54 µM (active) | IC50 (Bcl-2-related protein A1 [8]): 1.7 µM (active)

CN(C)S(=O)(=O)c1ccc(C(=O)Nc2nc(-c3cccs3)cs2)cc1
AC50 [9]: > 70 µM (inactive) | AC50 [10]: 67.7 µM (active) | AC50 [11]: 9.43 µM (active) | EC50 [12]: 102 µM (active) | AC50 [13]: 0.879 µM (active) | EC50 [14]: 79.7 µM (active)

COC(=O)c1ccc(CSc2nnc(-c3ccncc3)o2)o1
IC50 (cells): 39.6 µM (active) | IC50 [15]: 11 µM (inactive)

CCCCN1C(=O)N(C)C2NC(=O)NC21 (stereo unspecified)
IC50 [15]: 3 µM (active)

CCOC(=O)C1=C(N)n2c(s/c(=C/c3ccco3)c2=O)=C(C(=O)OC)C1c1ccco1 (stereo unspecified)
CC50 [16]: > 40 µM (active)

C[C@H](CO)N1C[C@H](C)[C@H](CN(C)C(=O)Nc2ccc3c(c2)OCO3)Oc2ncc(-c3cccc(C(F)(F)F)c3)cc2C1=O
AC50 [17]: 14.1 µM (active)

COc1ccc(C#Cc2ccc([C@@H]3[C@@H](CO)N4CCCCN(C(=O)Nc5ccccc5)C[C@H]34)cc2)cc1
AC50 [18]: 1.29 µM (active) | AC50 [19]: 11.4 µM (active) | AC50 [17]: 6.46 µM (active)

Cc1ccccc1S(=O)(=O)N1[C@H](C#N)[C@H](c2ccc(C#CC3CCCCC3)cc2)[C@H]1CO
AC50 [20]: 13 µM (active) | AC50 [21]: 10.7 µM (active)

CCN(CC)c1ccc(/C=N/N2C(C)CCCC2C)c(O)c1 (stereo unspecified)
AC50 [9]: > 70 µM (inactive) | AC50 [22]: 2.22 µM (active) | AC50 [10]: 48.3 µM (active)
